Measured values from patent US8609719B2, “Propargylated aminoindans, processes for preparation, and uses thereof” (priority 2006, dated 2013).

Legend:
MAO-A = biological target: T1, MAO-A (Homo sapiens, UniProt P21397); assay: Decrease of plasma DHPG in patients (HPLC analysis of MAO-A inhibition); type: in vivo
T1 construct: from tissue; host or cells: patients in vivo; DHPG measured in plasma
T1 sequence (P21397 1-527): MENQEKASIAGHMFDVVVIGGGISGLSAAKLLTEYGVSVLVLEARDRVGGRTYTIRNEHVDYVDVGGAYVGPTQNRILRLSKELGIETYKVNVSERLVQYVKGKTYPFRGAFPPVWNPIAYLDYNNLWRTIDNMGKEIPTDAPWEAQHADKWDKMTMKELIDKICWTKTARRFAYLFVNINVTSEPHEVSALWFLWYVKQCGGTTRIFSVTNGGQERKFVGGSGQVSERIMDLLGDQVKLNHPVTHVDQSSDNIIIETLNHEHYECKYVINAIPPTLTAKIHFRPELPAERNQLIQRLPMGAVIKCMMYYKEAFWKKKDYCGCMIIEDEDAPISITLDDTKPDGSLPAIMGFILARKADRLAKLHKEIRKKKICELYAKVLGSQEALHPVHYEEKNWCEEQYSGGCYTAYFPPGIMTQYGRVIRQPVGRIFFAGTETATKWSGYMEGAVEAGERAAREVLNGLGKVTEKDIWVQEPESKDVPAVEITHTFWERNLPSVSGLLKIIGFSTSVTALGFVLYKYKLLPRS
Experimental: 8 patients, 7 female and 1 male, ages 62-81 with a median age of 68 and above with diagnosis of probable Alzheimer's disease according to DSM-IV (290.00 or 290.10) and NINCDS-ADRDA criteria were administered ladostigil tartrate according to the following schedule:
Decrease of 3,4-dihydroxyphenylglycol (“DHPG”) in plasma is indicative of monoamine oxidase inhibition, especially in the brain. DHPG plasma concentrations were measured in 6 of the aforementioned patients at baseline and at termination analysis, using HPLC equipped with an electrochemical detector.
The decrease in DHPG concentration in the six patients was determined. The average decrease in DHPG concentration was determined to be 57% with a standard deviation of 29.

Cholinesterase = Cholinesterase inhibition in patients at pre-dose; type: in vivo, human; settings: at maintenance and at termination analyses
Experimental: 8 patients, 7 female and 1 male, ages 62-81 with a median age of 68 and above with diagnosis of probable Alzheimer's disease according to DSM-IV (290.00 or 290.10) and NINCDS-ADRDA criteria were administered ladostigil tartrate according to the following schedule: […]

clinical = settings: human, in vivo; for Cmax / AUC / AUC(0-t): 100 mg, after ladostigil tartrate 100 mg twice daily; for AUC: AUC (M)

Question: For `C#CCN[C@@H]1CCc2ccc(OC(=O)N(C)CC)cc21` [ladostigil, R(+)-6-(N-methyl, N-ethyl-carbamoyloxy)-N′-propargyl-1-aminoindan], which “DHPG (T)” value (MAO-A; Patient 1, termination analysis Week 9 vs baseline) is on record?
Answer: −63%

Question: And the “DHPG (T)” value (MAO-A; Patient 2, termination analysis Week 9 vs baseline)?
Answer: −86%

Question: And the “DHPG (T)” value (MAO-A; Patient 5, termination analysis Week 9 vs baseline)?
Answer: >−79%

Question: And the “DHPG (T)” value (MAO-A; Patient 6, termination analysis Week 9 vs baseline)?
Answer: −73%

Question: And the “DHPG (T)” value (MAO-A; Patient 7, termination analysis Week 9 vs baseline)?
Answer: −30%

Question: And the “DHPG (T)” value (MAO-A; Patient 8, termination analysis Week 9 vs baseline)?
Answer: −13%

Question: What about the “Cholinesterase inhibition at pre-dose, in words” value (Cholinesterase) of the same compound?
Answer: evident

Question: What about the half-life (clinical; both) of the same compound?
Answer: 1.08 h

Question: And the Cmax (clinical; both, Cmax (M), mean, mean of patients, maintenance analysis Week 4)?
Answer: 2.02e-06 M

Question: And the Cmax (clinical; both, Cmax (T), mean, mean of patients, termination analysis Week 9)?
Answer: 1.88e-06 M

Question: And the AUC (clinical; Patient 1, maintenance analysis Week 4)?
Answer: 314 ng·h/mL

Question: And the AUC (clinical; Patient 2, maintenance analysis Week 4)?
Answer: 589 ng·h/mL

Question: And the AUC (clinical; Patient 3, maintenance analysis Week 4)?
Answer: 1000 ng·h/mL

Question: And the AUC (clinical; Patient 4, maintenance analysis Week 4)?
Answer: 927 ng·h/mL

Question: What about the AUC (clinical; Patient 5, maintenance analysis Week 4) of the same compound?
Answer: 436 ng·h/mL

Question: What about the AUC (clinical; Patient 6, maintenance analysis Week 4) of the same compound?
Answer: 551 ng·h/mL

Question: What about the AUC (clinical; Patient 7, maintenance analysis Week 4) of the same compound?
Answer: 52 ng·h/mL

Question: And the AUC (clinical; Patient 8, maintenance analysis Week 4)?
Answer: 500 ng·h/mL

Question: And the AUC(0-t) (clinical; Patient 1, termination analysis Week 9)?
Answer: 246 ng·h/mL

Question: And the AUC(0-t) (clinical; Patient 2, termination analysis Week 9)?
Answer: 2300 ng·h/mL

Question: And the AUC(0-t) (clinical; Patient 3, termination analysis Week 9)?
Answer: 1450 ng·h/mL

Question: What about the AUC(0-t) (clinical; Patient 4, termination analysis Week 9) of the same compound?
Answer: 482 ng·h/mL

Question: And the AUC(0-t) (clinical; Patient 5, termination analysis Week 9)?
Answer: 398 ng·h/mL

Question: And the AUC(0-t) (clinical; Patient 6, termination analysis Week 9)?
Answer: 901 ng·h/mL

Question: What about the AUC(0-t) (clinical; Patient 7, termination analysis Week 9) of the same compound?
Answer: 118 ng·h/mL

Question: And the AUC(0-t) (clinical; Patient 8, termination analysis Week 9)?
Answer: 350 ng·h/mL

Question: What about the Cmax (clinical; Cmax (M), Patient 1, maintenance analysis Week 4) of the same compound?
Answer: 1.1e-06 M

Question: And the Cmax (clinical; Cmax (M), Patient 2, maintenance analysis Week 4)?
Answer: 1.2e-06 M

Question: What about the Cmax (clinical; Cmax (M), Patient 3, maintenance analysis Week 4) of the same compound?
Answer: 3.5e-06 M

Question: What about the Cmax (clinical; Cmax (M), Patient 4, maintenance analysis Week 4) of the same compound?
Answer: 3.9e-06 M

Question: And the Cmax (clinical; Cmax (M), Patient 5, maintenance analysis Week 4)?
Answer: 1.4e-06 M

Question: What about the Cmax (clinical; Cmax (M), Patient 6, maintenance analysis Week 4) of the same compound?
Answer: 1.5e-06 M

Question: What about the Cmax (clinical; Cmax (M), Patient 7, maintenance analysis Week 4) of the same compound?
Answer: 2e-07 M

Question: What about the Cmax (clinical; Cmax (M), Patient 8, maintenance analysis Week 4) of the same compound?
Answer: 1.7e-06 M

Question: And the Cmax (clinical; Cmax (T), Patient 1, termination analysis Week 9)?
Answer: 7e-07 M

Question: What about the Cmax (clinical; Cmax (T), Patient 2, termination analysis Week 9) of the same compound?
Answer: 3.8e-06 M

Question: And the Cmax (clinical; Cmax (T), Patient 3, termination analysis Week 9)?
Answer: 3.9e-06 M

Question: And the Cmax (clinical; Cmax (T), Patient 4, termination analysis Week 9)?
Answer: 1.6e-06 M

Question: What about the Cmax (clinical; Cmax (T), Patient 5, termination analysis Week 9) of the same compound?
Answer: 1e-06 M

Question: And the Cmax (clinical; Cmax (T), Patient 6, termination analysis Week 9)?
Answer: 2.5e-06 M

Question: And the Cmax (clinical; Cmax (T), Patient 7, termination analysis Week 9)?
Answer: 4e-07 M

Question: And the Cmax (clinical; Cmax (T), Patient 8, termination analysis Week 9)?
Answer: 1.3e-06 M
